Some test systems named below: DMS-273; DU-145; Hs-578T; MDA-MB-435; T47D; BT-549; XF498.
What all share (assay): inhibition of tumour cell growth, NCI panel, 48 h

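48-hour exposure; five concentrations; linearly interpolated endpoints. GI50 marks 50% less growth.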 Activity calls are given as the source filed them. Cut-off read from the data, not from the text of the source: active = GI50 up to about 1.1 µM and inactive = higher.

For the molecule `C=C1C(=O)OC2C=C(C)CC3C=C(CCC=C(C)CCC12)C(=O)O3` (stereo not drawn), in the assay with DMS-273, the GI50 is 68.1 µM (inactive).

Turning to `CO[C@H]1ON=C(c2c(C)cc(C)cc2C)[C@@H]1C1(c2ccccc2)ON=C(c2c(C)cc(C)cc2C)O1` (stereo partly drawn), the GI50 in the assay with DMS-273 was > 100 µM (inactive).

As to `CC(=O)O[C@@H]1CN(S(=O)(=O)c2ccc(C)cc2)C[C@@H]1C1CCCCC1`, the GI50 with DU-145 is 30.8 µM (inactive); with Hs-578T, 11.5 µM (inactive); in the assay on MDA-MB-435, 18.7 µM (inactive); in the assay with T47D, 31.8 µM (inactive).

As for `C=CCNC(=O)CN(CC(=O)OC)C1CCCCC1N(CC(=O)OC)CC(=O)OC` (stereo not drawn), the GI50 in the assay with BT-549, with DU-145, with Hs-578T, in the assay with MDA-MB-435 and with T47D was > 100 µM (inactive) in each case.

As to `CC(C)CNC1=NCC(C)S1` (stereo not drawn), the GI50 in the assay on BT-549, in the assay on DU-145, in the assay on Hs-578T, in the assay on MDA-MB-435 and with T47D was > 100 µM (inactive) throughout.

As to `O=C1C(Cl)N(c2ccccc2Cl)C1c1c[nH]c2ccccc12` (stereo not drawn), the GI50 in the assay with XF498 was > 100 µM (inactive).

`CNC(=O)N(C)COC`: the GI50 in the assay with XF498 was > 100 µM (inactive).

Turning to `C#CC[N+](CCO)(CCO)CCCCCCCCCCCCCCCCCC`, the GI50 in the assay on DMS-273 was 4.9 µM (inactive); in the assay with XF498 it was 4.43 µM (inactive).

Regarding `Cc1cn(Cc2cn(CC3OC(n4cc(C)c(=O)[nH]c4=O)CC3O)nn2)c(=O)[nH]c1=O` (stereo not drawn), the GI50 with BT-549, in the assay on DU-145, in the assay with Hs-578T, in the assay on MDA-MB-435 and with T47D was > 100 µM (inactive) each time.

Take `Cn1c(=O)c2nc(N3CCCCC3)cnc2n(C)c1=O`: in the assay with XF498, the GI50 is > 100 µM (inactive).

On to `O=C(O)CN1CCN(CC(=O)O)CCN(CC(=O)O)CC1`, for which the GI50 with BT-549 is > 100 µM (inactive); with DU-145 it was > 100 µM (inactive); in the assay with Hs-578T, > 100 µM (inactive); in the assay with MDA-MB-435, 30.8 µM (inactive); with T47D it was > 100 µM (inactive).

On to `C=C(/C=C/C=C(\C)CCC=C(C)C)[C@@H]1CC[C@]2([C@H](CCCO)/C(=C(/C)C=O)CC[C@]2(C)O)[C@@H]1O`, for which the GI50 with DMS-273 is 14.6 µM (inactive); with XF498, 18.7 µM (inactive).
